{
  "source": "patent US7625875B2",
  "about": "(priority 2002, dated 2009)",
  "key": {"Influenza B": {"system": "Influenza B", "test": "Antiviral activity, Influenza B (MDCK)", "format": "cell-based", "settings": "Influenza B virus"}, "HepG2 cells": {"system": "HepG2 cells", "test": "Mitochondria toxicity assay, lactic acid production, HepG2", "settings": "for L-Lactate (% of Control): 4 days"}, "HSV-2": {"system": "HSV-2", "test": "Antiviral activity, HSV-2 (HFF)", "format": "cell-based", "settings": "Human alphaherpesvirus 2"}, "BVDV RNA": {"system": "BVDV RNA", "test": "Intracellular BVDV RNA by Real Time RT-PCR in de novo-infected MDBK cells", "format": "cell-based, bovine viral diarrhea virus"}, "Huh7 cells": {"system": "Huh7 cells", "test": "Mitochondria toxicity assay, lactic acid production, Huh7", "settings": "4 days"}, "Influenza A/H1N1": {"system": "Influenza A/H1N1", "test": "Antiviral activity, Influenza A/H1N1 (MDCK)", "format": "cell-based", "settings": "Influenza A virus"}, "[1]": {"system": "LLC-MK2, Rhesus monkey kidney cells", "settings": "Punta Toro A line"}, "Rhinovirus type 2": {"system": "Rhinovirus type 2", "test": "microbe, parasite or virus in culture", "format": "cell-based", "settings": "Enterovirus"}, "[2]": {"system": "BVDV (strain I-N-dIns), noncytopathic", "format": "cell-based, bovine viral diarrhea virus"}, "West Nile Virus": {"system": "West Nile Virus", "test": "microbe, parasite or virus in culture", "format": "cell-based", "settings": "BHK"}},
  "data": [
    {"compound": "CC1(O)C(O)C(CO)OC1n1ccc(N)nc1=O", "note": "(stereo not shown) [mCyd, 4-Amino-1-(3,4-dihydroxy-5-hydroxymethyl-3-methyl-tetrahydro-furan-2-yl)-1H-pyrimidine-2-one]", "values": [
      {"measurement": "EC50", "setting": "Influenza B", "value": "> 200", "unit": "µM"},
      {"measurement": "L-Lactate (% of Control)", "setting": "HepG2 cells; 10 μM", "value": "98.6 ± 7.3 % of Control"},
      {"measurement": "increase in lactic acid production", "setting": "HepG2 cells; 50 μM", "value": 38, "unit": "%"},
      {"measurement": "L-Lactate (% of Control)", "setting": "HepG2 cells; 50 μM", "value": "138.0 ± 8.9 % of Control"},
      {"measurement": "EC50", "setting": "HSV-2", "value": "> 100", "unit": "µg/mL"},
      {"measurement": "effect on the level of the rig S15 cellular mRNA control", "setting": "BVDV RNA", "value": "No effect"},
      {"measurement": "maximum viral RNA reduction", "setting": "BVDV RNA; highest inhibitor concentration tested (125 μM)", "value": 4, "unit": "log10"},
      {"measurement": "L-Lactate (% of Control)", "setting": "Huh7 cells; 10 μM", "value": "98.0 ± 12.3 % of Control"},
      {"measurement": "L-Lactate (% of Control)", "setting": "Huh7 cells; 50 μM", "value": "97.1 ± 10.1 % of Control"},
      {"measurement": "EC50", "setting": "Influenza A/H1N1", "value": "> 200", "unit": "µM"},
      {"measurement": "CC50", "setting": "[1]", "value": "> 200", "unit": "µM"},
      {"measurement": "EC50", "setting": "Rhinovirus type 2", "value": "2 to 10", "unit": "µM"},
      {"measurement": "reduction of BVDV titer", "setting": "[2]; 4 μM, one cell passage (3 days)", "value": "approximately 3 log10"},
      {"measurement": "reduction of virus production", "setting": "[2]; 8 μM", "value": 6.2, "unit": "log10"},
      {"measurement": "virus production", "setting": "[2]; 16 μM, within two cell passages, from more than 6 logs of virus per ml", "value": "undetectable levels"},
      {"measurement": "EC50", "setting": "West Nile Virus", "value": "63 to 97", "unit": "µM"}
    ]}
  ]
}
